Where “and” joins values, the source holds several entries; their conditions need not be identical. Identical values can stand only once.
What was measured:
mPPARγ-downstream genes = assay: RT-qPCR of Glut4 and other mPPARγ-downstream genes in differentiated 3T3-L1 adipocytes; format: cell-based, mouse
Description: The cell lines, which were tested for mycoplasma contamination and authenticated, were purchased from the Bioresource Collection and Research Center, Taiwan. All cells were cultured at 37 °C, 5% CO2 in a humidified incubator. HEK293T cells were maintained in DMEM (cat. no. SH30003.02, HyClone) supplemented with 10% fetal bovine serum (FBS) (cat. no. 04-001-1A, Biological Industries) and 1% antibiotic/antimycotic solution (cat. no. SV30079.01, HyClone). 3T3-L1 preadipocytes were maintained at ~70% confluence in DMEM with 10% calf serum (cat. no. 16170078, Gibco) and 1% antibiotic/antimycotic solution. For adipocyte differentiation, confluent 3T3-L1 cells (defined as day 0) were exposed to an induction medium containing 10% FBS, 1 μM dexamethasone (cat. no. D4902, Sigma-Aldrich), and 1 μg/ml insulin (Humulin R, Eli Lilly) in DMEM with or without 0.5 mM isobutyl-methylxanthine (cat. no. sc-201188A, Santa Cruz Biotechnology) as indicated. After two days, the medium was replaced with DMEM containing 10% FBS and 1 μg/ml insulin and was replenished every two days until assay.
A total of 1 × 10^5 3T3-L1 preadipocytes were seeded in 6-well plates and differentiated for six days. The 3T3-L1 adipocytes were then harvested in 1 ml of REzol C&T (cat. no. PT-KP200CT, Protech), and total RNA was extracted according to the manufacturer’s instructions with slight modifications. Briefly, 200 μl of chloroform were added to 1 ml of sample in REzol, and samples were vigorously mixed by shaking for 30 s, followed by incubation at room temperature for 5 min. Then, samples were centrifuged at 12,000 × g for 15 min at 4 °C, and 400 μl of the upper aqueous phase were transferred to a new 1.5-ml tube. An equal volume of isopropanol was added. Samples were inverted several times for mixing and then centrifuged at 12,000 × g for 10 min at 4 °C. The RNA precipitate, which formed a pellet at the bottom of the 1.5-ml tube, was washed three times with 75% ethanol and air-dried for 15 min. Pellets were dissolved in RNase-free water. The concentration of RNA was measured using Nanodrop. cDNA was synthesized using a reverse transcription kit (cat. no. K1622, Thermo Scientific) using the oligo(dT)18 primers. RT-qPCR was performed in a 10-μl reaction with 50 ng cDNA and 0.2 μM primer using SYBR green reagent (cat. no. 11203ES08, YEASEN). Mouse peptidylprolyl isomerase A (Ppia) mRNA was used as the internal control. RT-qPCR reactions were performed using ABI 7900HT FAST (Applied Biosystems) and Sequence Detection Systems (SDS v2.3, Applied Biosystems). All qPCR reactions were run in duplicates. The primers used are listed in Appendix Table S3.

wild-type mPPARγ = target: T1, wild-type mPPARγ (Mus musculus, UniProt P37238); assay: PPRE reporter assay in HEK293T cells, wild-type mPPARγ; format: cell-based, murine; design: key to PPRE reporter activity, Fig 1M replicates: luciferase activity normalized to TK reporter signal; conditions: for PPRE reporter activity, Fig 1M replicates: PPARg WT
T1 construct: host or cells: HEK293T
T1 sequence (P37238 1-505): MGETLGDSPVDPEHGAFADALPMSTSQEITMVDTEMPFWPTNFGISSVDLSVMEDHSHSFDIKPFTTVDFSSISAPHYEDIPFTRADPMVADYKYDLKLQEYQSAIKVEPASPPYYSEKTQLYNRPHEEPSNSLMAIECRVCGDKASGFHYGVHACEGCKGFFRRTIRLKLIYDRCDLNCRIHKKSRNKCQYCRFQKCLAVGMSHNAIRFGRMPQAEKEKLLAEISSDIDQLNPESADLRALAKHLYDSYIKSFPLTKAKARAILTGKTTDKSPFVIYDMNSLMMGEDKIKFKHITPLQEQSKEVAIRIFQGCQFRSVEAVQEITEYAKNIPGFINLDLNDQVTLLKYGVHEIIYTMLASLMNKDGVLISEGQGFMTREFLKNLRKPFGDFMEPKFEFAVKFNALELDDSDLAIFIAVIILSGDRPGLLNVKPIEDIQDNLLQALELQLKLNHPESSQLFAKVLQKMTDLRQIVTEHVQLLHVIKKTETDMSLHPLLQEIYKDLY
Description: For PPRE reporter assay, HEK293T cells were seeded in 24-well plates at 1 × 10^5 cells/well. […] The luciferase activity was measured by Luc-Pair™ Duo-Luciferase HS Assay Kit (cat. no. LF600, Promega, USA) and normalized to the TK reporter signal.

[1] = test system: HFHSD-fed obese C57BL6/J mice; assay: Adipocyte size and number in perigonadal fat (H&E stain); format: in vivo, mouse; conditions: vs vehicle
Excerpt: Tissues were fixed in 4% paraformaldehyde and then embedded in paraffin before sectioning and staining. The stained sections were scanned and analyzed using a MIRAX viewer (http://www.zeiss.de/mirax) and Image J software (http://rsbwed.nih.gov/ij/).

[2] = test system: HFHSD-fed obese C57BL6/J mice; assay: Body composition (fat mass, lean mass, free water, total water); format: in vivo, mouse; design: Fat mass (Figure 5O) / lean mass (Figure 5O) / Free fluid (Figure 5O): unit not given beside the values; conditions: for body composition: fat mass / fluid retention (body composition): vs vehicle
[3] = 100 mg/kg/day oral, HFHSD-fed mice
[4] = 40 mg/kg/day ip, 3 weeks, HFHSD-fed mice
[5] = 40 mg/kg/day ip, HFHSD-fed mice, listed as 15kPGE2

## CCCCCC(=O)CC[C@H]1[C@H](O)CC(=O)[C@@H]1C/C=C\CCCC(=O)O [13,14-dihydro-15-keto-PGE2]
mPPARγ-downstream genes; 13,14dh-15kPGE2 10μM
  Adipoq RT-qPCR, Fig 1I replicates: 1.319 and 1.153 and 1.286
  Cepba RT-qPCR, Fig 1H replicates: 1.374 and 0.7769 and 0.716
mPPARγ-downstream genes; 13,14dh-15kPGE2 10
  Acs RT-qPCR, Fig 1G replicates: 1.301 and 1.081 and 1.404
  Cd36 RT-qPCR, Fig 1F replicates: 1.404 and 1.223 and 0.9692
  Glut4 RT-qPCR, Fig 1C replicates: 1.898 and 2.106 and 1.673
  Irs2 RT-qPCR, Fig 1D replicates: 0.9456 and 0.6593 and 0.5678
  Sorbs1 RT-qPCR, Fig 1E replicates: 1.1258 and 0.882 and 0.8066
wild-type mPPARγ; 1314dh-15kPGE2 5uM
  PPRE reporter activity, Fig 1M replicates: 0.8192 and 0.7939 and 0.9277
wild-type mPPARγ; 1314dh-15kPGE2 10uM
  PPRE reporter activity, Fig 1M replicates: 1.0416 and 0.7874 and 1.0502

## Cc1[nH]c2nc(C(C)N3CCN(c4ccccc4)CC3)nn2c(=O)c1Cc1ccc(F)cc1 (stereo not drawn) [BPRPT0245]
[1]; 100 mg/kg/day oral
  adipocyte number: not changed
  adipocyte size: reduced
[2]; [3]
  body composition: fat mass: marginally significantly reduced fat mass
  fluid retention (body composition): did not cause fluid retention
[2]; individual animals
  Fat mass (Figure 5O): 18.94 and 14.08 and 8.33 and 20.43 and 12.66 and 22.41 and 12.99 and 8.39 and 11.25 and 10.06
  Free fluid (Figure 5O): 3.62 and 3.13 and 2.31 and 3.61 and 2.85 and 4.07 and 3.08 and 2.76 and 3.02 and 2.68
  lean mass (Figure 5O): 26.38 and 24.44 and 20.16 and 22.44 and 28.07 and 22.14 and 23.04 and 23.87 and 21.38
[2]; individual animals, in g (unit assumed)
  Total water (Figure 5O): 24.73 and 22.68 and 18.44 and 23.16 and 20.8 and 26.52 and 20.79 and 21.19 and 22.12 and 19.78

## CCCCCC(=O)/C=C/[C@H]1[C@H](O)CC(=O)[C@@H]1C/C=C\CCCC(=O)O [15-keto-PGE2, 15-keto-prostaglandin E2]
mPPARγ-downstream genes; 3T3-L1 adipocytes
  Expression of Glut4 and other PPARγ-downstream genes (Irs2, Sorbs1, Cd36, Acs, Cebpa, Adipq): significantly increased
mPPARγ-downstream genes; 15kPGE2 1μM
  Adipoq RT-qPCR, Fig 1I replicates: 1.0415 and 1.163 and 1.453
  Cepba RT-qPCR, Fig 1H replicates: 1.584 and 1.855 and 1.4452
mPPARγ-downstream genes; 15kPGE2 5μM
  Adipoq RT-qPCR, Fig 1I replicates: 2.354 and 2.11 and 2.081
  Cepba RT-qPCR, Fig 1H replicates: 1.743 and 1.998 and 2.055
mPPARγ-downstream genes; 15kPGE2 10μM
  Adipoq RT-qPCR, Fig 1I replicates: 2.022 and 2.345 and 2.444
  Cepba RT-qPCR, Fig 1H replicates: 2.675 and 2.195 and 2.109
mPPARγ-downstream genes; 15kPGE2 1
  Acs RT-qPCR, Fig 1G replicates: 1.074 and 1.165 and 0.8587
  Cd36 RT-qPCR, Fig 1F replicates: 1.042 and 1.096 and 0.9399
  Glut4 RT-qPCR, Fig 1C replicates: 1.309 and 1.263 and 1.257
  Irs2 RT-qPCR, Fig 1D replicates: 1.164 and 1.43 and 1.116
  Sorbs1 RT-qPCR, Fig 1E replicates: 1.214 and 1.379 and 1.0658
mPPARγ-downstream genes; 15kPGE2 5
  Acs RT-qPCR, Fig 1G replicates: 1.251 and 1.575 and 1.53
  Cd36 RT-qPCR, Fig 1F replicates: 1.448 and 1.619 and 1.287
  Glut4 RT-qPCR, Fig 1C replicates: 2.797 and 2.997 and 3.11
  Irs2 RT-qPCR, Fig 1D replicates: 1.3621 and 1.275 and 1.386
  Sorbs1 RT-qPCR, Fig 1E replicates: 1.2593 and 1.694 and 1.702
mPPARγ-downstream genes; 15kPGE2 10
  Acs RT-qPCR, Fig 1G replicates: 2.4974 and 2.133 and 2.44
  Cd36 RT-qPCR, Fig 1F replicates: 2.006 and 2.309 and 1.915
  Glut4 RT-qPCR, Fig 1C replicates: 7.333 and 8.598 and 7.543
  Irs2 RT-qPCR, Fig 1D replicates: 2.078 and 2.094 and 1.997
  Sorbs1 RT-qPCR, Fig 1E replicates: 2.379 and 1.942 and 1.911
wild-type mPPARγ; 15kPGE2 1uM
  PPRE reporter activity, Fig 1M replicates: 0.8257 and 0.8644 and 0.9986
wild-type mPPARγ; 15kPGE2 5uM
  PPRE reporter activity, Fig 1M replicates: 1.6663 and 1.771 and 1.8768
wild-type mPPARγ; 15kPGE2 10uM
  PPRE reporter activity, Fig 1M replicates: 2.316 and 1.9846 and 1.9282
wild-type mPPARγ; HEK293T
  PPRE reporter activity, wild-type mPPARγ: dose-dependently increases the reporter activity of PPARγ
[1]; 40 mg/kg/day ip
  adipocyte size: smaller
  number of adipocytes: no difference
[2]; [4]
  body composition: fat mass: reduced fat mass
  fluid retention (body composition): without fluid retention
[2]; [5]
  fat mass, Fig 2K, per mouse: 5.32 and 2.67 and 2.477 and 3.3 and 3.197 and 3.02 and 3.75 and 4.29 and 2.763 and 2.153 and 4.333 and 4.837 and 5.383 and 6.203
  free water, Fig 2K, per mouse: 2.353 and 2.46 and 2.333 and 2.08 and 2.14 and 2.517 and 2.187 and 2.62 and 2.42 and 2.197 and 2.23 and 2.307 and 2.467
  lean mass, Fig 2K, per mouse: 21.65 and 22.52 and 23.3767 and 19.74 and 20.2767 and 20.98 and 21.1733 and 22.3667 and 21.9633 and 21.94 and 20.5267 and 22.2733 and 21.2733 and 21.61
[2]; 40 mg/kg/day ip, HFHSD-fed mice, listed as 15kPGE2, in g (unit assumed)
  total water, Fig 2K, per mouse: 19.6733 and 20.4733 and 21.0367 and 17.8733 and 18.36 and 19.3 and 19.1267 and 20.5133 and 19.99 and 19.7467 and 18.65 and 20.1267 and 19.4833 and 19.7567

Source: publication PMC12081876, “Identification of PTGR2 inhibitors as a new therapeutic strategy for diabetes and obesity” (EMBO Molecular Medicine, 2025)
